Source: ChEMBL document CHEMBL4138122, “Azaphenothiazines - promising phenothiazine derivatives. An insight into nomenclature, synthesis, structure elucidation and biological properties” (Eur J Med Chem, 2017)
In brackets after ≈: the same amount, converted by molar mass. One block for each compound: values may come before it.

What was measured:
Liver = experiment: Antioxidant activity in rat liver microsomal membranes assessed as inhibition of Fe(2+)/ascorbate-induced lipid peroxidation; format: functional, microsomes, microsome
Rattus norvegicus = experiment: Analgesic activity in Sprague-Dawley rat assessed as reduction in phenylbenzoquinone-induced number of writhes at 20 mg/kg, sc incubated for 60 mins; format: functional; parameters: scale not given: the % may be the effect or the level left
SNB-19 = experiment: Cytotoxicity against human SNB19 cells; format: functional, cell-based
T47D = experiment: Cytotoxicity against human T47D cells; format: functional, cell-based
MDA-MB-231 = experiment: Cytotoxicity against human MDA-MB-231 cells; format: functional, cell-based
C32 = experiment: Cytotoxicity against human C32 cells; format: functional, cell-based
PBMC [1] = experiment: Cytotoxicity in human PBMCs assessed as reduction in cel viability at 50 ug/ml; format: cell-based
PBMC [2] = experiment: Inhibition of PHA-induced cell proliferation of human PBMC at 50 ug/ml incubated for 4 days by MTT method; format: functional; settings: 96 h
[3] = Displacement of [3H]-diazepam from benzodiazepine receptor in rat brain membranes after 30 mins; format: cell membranes, Membrane
Bacillus cereus = experiment: Antibacterial activity against Bacillus cereus; format: functional, organism-based
Escherichia coli = experiment: Antibacterial activity against Escherichia coli; format: functional; settings: for MIC: Escherichia coli
PBMC [4] = experiment: Inhibition of LPS-induced TNFalpha profduction in human PBMC at 5 ug/ml; format: functional
[5] = Inhibition of LTB4 formation in rat polymorphonuclear leukocytes preincubated for 2 mins followed by A-23187 addition after 4 mins; format: functional, cell-based
[6] = target: Intercellular adhesion molecule 1 (Homo sapiens, UniProt P05362); experiment: Inhibition of ICAM1 (unknown origin)
Sequence of Intercellular adhesion molecule 1 (P05362 whole entry): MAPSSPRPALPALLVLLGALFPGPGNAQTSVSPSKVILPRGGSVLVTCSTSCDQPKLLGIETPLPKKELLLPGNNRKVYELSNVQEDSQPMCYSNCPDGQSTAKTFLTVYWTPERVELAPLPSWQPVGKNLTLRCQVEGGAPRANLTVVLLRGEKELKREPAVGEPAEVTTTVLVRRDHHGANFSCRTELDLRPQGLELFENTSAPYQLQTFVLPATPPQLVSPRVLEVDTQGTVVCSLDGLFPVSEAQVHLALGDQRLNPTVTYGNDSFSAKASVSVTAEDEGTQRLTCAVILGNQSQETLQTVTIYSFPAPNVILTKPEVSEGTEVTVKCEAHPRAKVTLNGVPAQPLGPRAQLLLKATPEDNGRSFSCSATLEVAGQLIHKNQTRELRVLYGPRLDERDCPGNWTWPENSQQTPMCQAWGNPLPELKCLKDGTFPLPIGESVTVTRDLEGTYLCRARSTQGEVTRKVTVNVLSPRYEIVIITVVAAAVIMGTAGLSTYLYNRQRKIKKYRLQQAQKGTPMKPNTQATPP

Mus musculus [7] = experiment: Anti-inflammatory activity in IL1-induced paw inflammation Balb/c mouse model assessed as inhibition of neutrophil migration at 10 mg/kg, po, pretreated for 30 mins followed by IL1 challenge measured after 2 hrs by spectrophotometric method; format: functional
Mus musculus [8] = experiment: Anti-inflammatory activity in mouse IL-1-induced paw inflammation model assessed as inhibition of neutrophil infiltration at 10 mg/kg, po; format: functional; settings: for inhibition in vivo at 10 mg/kg: Mus musculus, po
Bacillus subtilis = experiment: Antibacterial activity against Bacillus subtilis; format: functional
Staphylococcus aureus = experiment: Antibacterial activity against Staphylococcus aureus; format: functional
MCF7 = experiment: Cytotoxicity against human MCF7 cells; format: functional, cell-based

IC50 (Liver): 2 to 3 µg/mL (≈ 7.13 to 10.7 µM)
Compound: COc1ccc2c(c1)Sc1cc3ccccc3nc1N2

IC50 [3]: 310 to 910 nM
Compound: N#Cc1c(O)ncc2c1Nc1ccccc1S2

MIC (Bacillus cereus): 77.1 µg/mL (≈ 193 µM) | MIC (Escherichia coli): 87.1 to 97.1 µg/mL (≈ 218 to 242 µM)
Compound: COc1ccc2c(n1)Sc1c3c(c4ccccc4c1=N2)=Nc1c(N)ncnc1O3

IC50 [3]: 310 to 910 nM
Compound: N#Cc1c2c(c[nH]c1=O)S(=O)(=O)c1c(Cl)cccc1N2

IC50 [5]: 0.05 to 1 µg/mL (≈ 0.216 to 4.32 µM)
Compound: COc1ccc2c(c1)Sc1nccnc1N2

IC50 [6]: 270 to 1400 nM
Compound: CS(=O)(=O)NCCC1CCN(Cc2ccc3c(c2)Nc2nccnc2S3)CC1
inhibition in vivo at 10 mg/kg (Mus musculus [7]): 83.4 to 89.7%

IC50 [5]: 1 to 5 µg/mL (≈ 4.65 to 23.2 µM)
Compound: CN1c2ccccc2Sc2nccnc21

IC50 [6]: 270 to 1400 nM
Compound: O=S(=O)(NC1CCN(Cc2ccc3c(c2)Nc2nccnc2S3)CC1)N1CCOCC1
inhibition in vivo at 10 mg/kg (Mus musculus [7]): 66.1%

IC50 [6]: 270 to 1400 nM
Compound: CS(=O)(=O)N1CCN(Cc2ccc3c(c2)Nc2nccnc2S3)CC1
inhibition in vivo at 10 mg/kg (Mus musculus [7]): 53.4%

IC50 [6]: 2300 nM
Compound: O=C(O)CC1C2CCCC1CN(Cc1ccc3c(c1)Nc1nccnc1S3)C2 (stereo in doubt; 64d)
inhibition (INH) (Mus musculus [8]): 80.6%

IC50 [6]: 420 to 1000 nM
Compound: O=C(O)C1CC2(CCN(Cc3ccc4c(c3)Nc3nccnc3S4)CC2)C1
inhibition in vivo at 10 mg/kg (Mus musculus [8]): 82.8%

IC50 (Liver): 6 µg/mL (≈ 20 µM)
Compound: c1ccc2nc3c(cc2c1)Sc1c(ccc2ccccc12)N3

IC50 [3]: 310 to 910 nM
Compound: N#Cc1c2c(c[nH]c1=O)Sc1ccc([N+](=O)[O-])cc1N2

MIC (Bacillus cereus): 87.1 µg/mL (≈ 211 µM) | MIC (Escherichia coli): 87.1 to 97.1 µg/mL (≈ 211 to 235 µM)
Compound: Cc1ncc2c(n1)N=c1c(c3c(c4ccccc14)=Nc1cc([N+](=O)[O-])ccc1O3)S2

IC50 [6]: 420 to 1000 nM
Compound: O=C(O)c1ccc(CC2CCN(Cc3ccc4c(c3)Nc3nccnc3S4)CC2)cc1
inhibition in vivo at 10 mg/kg (Mus musculus [8]): 88%

The remaining lines, values behind:

Compound: Clc1ccc2c(c1)Sc1cc3ccccc3nc1N2
IC50 (Liver): 2 to 3 µg/mL (≈ 7.02 to 10.5 µM)

Compound: O=C(O)C(=O)O.c1ccc2c(c1)Sc1cnccc1N2CCCN1CCCCC1
Activity (Rattus norvegicus): 59 - 86%

Compound: C[n+]1cc2c(c3ccccc31)Nc1cc(OCCN3CCCCC3)ccc1S2.[Cl-]
IC50 (SNB-19): ≤ 3 µg/mL | IC50 (T47D): ≤ 3 µg/mL | IC50 (MDA-MB-231): ≤ 3 µg/mL | IC50 (C32): ≤ 3 µg/mL

Compound: CCN(CC)CCN1c2cnccc2Sc2cccnc21
Activity (PBMC [1]): <= 22% | inhibition at 50 µg/mL (PBMC [2]): 60%

Compound: c1cnc2c(c1)Sc1ccncc1N2CCN1CCCC1
Activity (PBMC [1]): <= 22% | inhibition at 5 µg/mL (PBMC [4]): > 85%

Compound: CN(C)CCCOc1ccc2c(c1)Nc1c(c[n+](C)c3ccccc13)S2.[Cl-]
IC50 (SNB-19): ≤ 3 µg/mL | IC50 (T47D): ≤ 3 µg/mL | IC50 (MDA-MB-231): ≤ 3 µg/mL | IC50 (C32): ≤ 3 µg/mL

Compound: C[n+]1cc2c(c3ccccc31)Nc1cc(OCCN3CCOCC3)ccc1S2.[Cl-]
IC50 (SNB-19): ≤ 3 µg/mL | IC50 (T47D): ≤ 3 µg/mL | IC50 (MDA-MB-231): ≤ 3 µg/mL | IC50 (C32): ≤ 3 µg/mL

Compound: CS(=O)(=O)NCC1CCN(Cc2ccc3c(c2)Nc2nccnc2S3)CC1
IC50 [6]: 270 to 1400 nM | inhibition in vivo at 10 mg/kg (Mus musculus [7]): 77.6%

Compound: CN(C)CCN1c2ccccc2Sc2cnccc21.O=C(O)C(=O)O
Activity (Rattus norvegicus): 59 - 86%

Compound: CN1CCN(CC#CCN2c3ccncc3Sc3ccncc32)CC1
IC50 (SNB-19): 21.2 µg/mL (≈ 60.3 µM) | IC50 (T47D): 9.6 µg/mL (≈ 27.3 µM) | IC50 (C32): 24.8 to 29.2 µg/mL (≈ 70.6 to 83.1 µM)

Compound: CN1CCC2=C(C1)Sc1ccccc1N2CCCN1CCOCC1
Activity (Rattus norvegicus): 93%

Compound: C(#CCN1c2cnccc2Sc2cccnc21)CN1CCN(c2ccccc2)CC1
Activity (PBMC [1]): <= 22% | IC50 (SNB-19): 33.1 µg/mL (≈ 80 µM) | IC50 (T47D): 45.8 µg/mL (≈ 111 µM) | IC50 (C32): 26.1 to 27.5 µg/mL (≈ 63.1 to 66.5 µM)

Compound: CN(C)CCCN1c2ccccc2Sc2cnccc21.O=C(O)C(=O)O
Activity (Rattus norvegicus): 59 - 86%

Compound: O=[N+]([O-])c1cnc2c(c1)Sc1cc(Br)ccc1N2
inhibition zone (IZ) (Bacillus subtilis): 8 - 12 mm | inhibition zone (IZ) (Escherichia coli): 7 - 12 mm | inhibition zone (IZ) (Staphylococcus aureus): 15 mm

Compound: CN(C)CCCN1c2ccc(F)cc2Sc2cnc3ccccc3c21
IC50 (MCF7): 7.91 µg/mL (≈ 22.4 µM) | IC50 (MDA-MB-231): 7.43 µg/mL (≈ 21 µM)

Compound: CCN(CC)CCCN1c2ccc3ccccc3c2Sc2cc3ccccc3nc21
IC50 (SNB-19): 0.98 µg/mL (≈ 2.37 µM) | IC50 (T47D): 5.9 µg/mL (≈ 14.3 µM) | IC50 (C32): 0.8 µg/mL (≈ 1.93 µM)

Compound: CC(=O)NCCCN1c2cnccc2Sc2cccnc21
Activity (PBMC [1]): <= 22% | inhibition at 50 µg/mL (PBMC [2]): 60%

Compound: c1cnc2c(c1)Nc1ccncc1S2
IC50 (MCF7): 0.72 µg/mL (≈ 3.58 µM) | IC50 (SNB-19): 0.46 µg/mL (≈ 2.29 µM) | IC50 (C32): 0.46 µg/mL (≈ 2.29 µM)
